Values of other authors, collected in patent US4533546A, “Antiinflammatory analgesic gelled ointments” (Lederle (Japan), Ltd., priority 1983, dated 1985).

How the values were obtained:
[1] = in water and various pharmaceutically acceptable solvents; in words
[2] = system: digestive organs; details: oral, background statement in words

SMILES | solubility [1] | side-effects [2]
O=C(O)Cc1ccc(-c2ccccc2)cc1 [4-biphenylylacetic acid] | insoluble or only sparingly soluble in water and various pharmaceutically acceptable solvents | side-effects on the digestive organs
CC(C)Cc1ccc(CC(=O)O)cc1 [ibufenac] |  | side-effects on the digestive organs
CC(C)Cc1ccc(C(C)C(=O)O)cc1 (centres unmarked) [ibuprofen] |  | side-effects on the digestive organs
COc1ccc2c(c1)c(CC(=O)O)c(C)n2C(=O)c1ccc(Cl)cc1 [indomethacin] |  | side-effects on the digestive organs
